Measured values: PubChem BioAssay (NCI)
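Protocol summary: plate cells (96-well), add compound at 5 concentrations, incubate 48 h, interpolate endpoints linearly. The concentration for 50% growth inhibition is given as GI50. TGI: total growth inhibition.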

Tests used:
Test in all cases: NCI anticancer screen, dose series, 48 h
MOLT-4 leukemia = tested on: MOLT-4 leukemia
SF-539 CNS = tested on: SF-539 CNS
HL-60(TB) leukemia = tested on: HL-60(TB) leukemia
SK-OV-3 ovarian = tested on: SK-OV-3 ovarian
PC-3 prostate = tested on: PC-3 prostate
HOP-92 NSCLC = tested on: HOP-92 NSCLC
RPMI-8226 leukemia = tested on: RPMI-8226 leukemia
IGROV1 ovarian = tested on: IGROV1 ovarian
K-562 leukemia = tested on: K-562 leukemia
LOX IMVI melanoma = tested on: LOX IMVI melanoma

Row | Structure (SMILES) | GI50 (MOLT-4 leukemia) [µM] | TGI (MOLT-4 leukemia) [µM] | GI50 (SF-539 CNS) [nM] | TGI (SF-539 CNS) [µM] | GI50 (HL-60(TB) leukemia) [nM] | TGI (HL-60(TB) leukemia) [µM] | GI50 (SK-OV-3 ovarian) [nM] | TGI (SK-OV-3 ovarian) [µM] | GI50 (PC-3 prostate) [nM] | TGI (PC-3 prostate) [µM] | GI50 (HOP-92 NSCLC) [nM] | TGI (HOP-92 NSCLC) [µM] | GI50 (RPMI-8226 leukemia) [nM] | TGI (RPMI-8226 leukemia) [µM] | GI50 (IGROV1 ovarian) [nM] | TGI (IGROV1 ovarian) [µM] | GI50 (K-562 leukemia) [nM] | TGI (K-562 leukemia) [µM] | GI50 (LOX IMVI melanoma) [nM] | TGI (LOX IMVI melanoma) [µM]
1 | Nc1ccc(-c2ccc3ncc4ccc(=O)n(-c5cccc(C(F)(F)F)c5)c4c3c2)cn1 | < 0.012 | 0.402 | < 10 | 0.039 | 40.8 | 8.66 | < 10 | 0.0222 | < 10 | 5.38 | < 10 | < 0.0226 | < 10 | 0.241 | < 10 | 0.314 | < 14 | > 43.2 | < 10 | 0.481
2 | CCn1c(=N)sc2nc3ccccc3n2c1=O |  | > 100 |  | > 100 |  | > 100 |  | > 100 |  | > 100 |  | > 100 |  | > 100 |  | > 100 |  | > 100 |  | > 100
3 | S=C(CSc1ccccc1)Nc1cccc2ccccc12 |  | 63.2 |  | 76.4 |  | > 100 |  | > 100 |  | > 100 |  | > 100 |  | > 100 |  | > 100 |  | > 100 |  | > 100
4 | COc1ccc2c(c1)O/C(=C\c1cccc(OCC(=O)Nc3nc(C)c(C)s3)c1)C2=O | 3.38 | > 22.5 | 1590 | 2.98 | 1480 | 3.16 | 25200 | > 75.3 | 821 |  | 1320 | 3.09 | 1660 | 3.97 | 152 | 0.316 | 2650 |  | 189 | 0.351
5 | NCCOc1ncccc1/C=C1\c2ccccc2-c2ccc([N+](=O)[O-])cc21 | < 0.01 | 0.0746 | 135 | 0.362 | 16.5 | 0.121 | 48.9 | 0.309 | 177 | 1.11 | 23.4 | 0.477 | 38.3 | 0.317 | 131 | 0.728 | 33.7 | 1.23 | 24.3 | 0.163
6 | O=C1Nc2ccccc2/C1=C/c1cn(CC(O)Cn2cc(/C=C3\C(=O)Nc4ccccc43)c3ccccc32)c2ccccc12 (stereo not drawn) | 2.58 | 7.42 | 1550 | 3.11 | 2950 | 10.8 | 1650 | 3.68 | 1210 | 2.66 | 1800 | 4.15 | 2100 | 5.41 | 477 | 1.9 | 1190 | 3.56 | 326 | 1.31
7 | Cc1c(C)c2c(c(C)c1OCC(=O)O)CC[C@@](C)(CCC[C@@H](C)CCC[C@@H](C)CCCC(C)C)O2 | 50.4 | 202 | 78100 | 153 | 77200 | 156 | 76800 | 148 | 34900 | 106 | 58600 | 137 | 56300 | 214 | 91700 | 187 | 62500 | 287 | 78700 | 216
8 | Cn1cc(C2=C(c3ccccc3C(F)(F)F)C(=O)NC2=O)c2ccccc21 | 5.89 | > 22.6 | 11100 | > 25 | 6870 | 17.5 | 10200 | > 25 | 6130 | > 25 | 17200 | > 25 | 10700 | > 25 | 13200 | > 25 | 8820 | > 25 | 8460 | > 25
9 | O=C(Nc1ccc2c(c1)OCCO2)C(=O)c1c[nH]c2ccccc12 | 0.618 | > 100 | 1500 | 5.32 | 1210 | > 32.9 | 1500 | 8.62 | 2170 | > 100 | 1340 | 11.1 | 2340 | > 100 | 3090 | > 72.4 | 369 | > 100 | 1300 | > 100
10 | CC(=O)O[C@H](C[C@H](C(C)C)N(C)C(=O)[C@@H](NC(=O)[C@H]1CCCCN1C)C(C)C)c1cccc(C(=O)N[C@@H](Cc2ccccc2)C[C@H](C)C(=O)O)n1 | 0.0219 | > 25 | 19.3 | 0.0626 | 6.9 | 0.0321 | 31.2 | > 25 | 32.1 | > 25 | 18.3 | > 25 | 21.3 | > 25 | 28.7 | > 25 | 10.3 | > 25 | 25.5 | > 25
11 | COc1ccc(-c2nn3ncccc3c2-c2ccnc(Nc3ccc4c(c3)OCCO4)n2)cc1 | 14.2 | > 25 | 13000 | > 25 | 12900 | > 25 | 4080 | > 20.8 | 9120 | > 25 | 521 | 10.6 | 4690 | > 20.7 | 2170 | > 19.6 | 9060 | > 25 | 3650 | > 25
12 | Cc1noc(C)c1-c1cnc2c(-c3ccc(C(=O)O)cc3)cn([C@@H](C)c3ccccn3)c2c1 | 12.6 | > 100 | 842 | > 100 | 253 | > 100 | 635 | 32.5 | 3280 | > 100 | 212 | > 100 | 155 | > 100 | 607 | > 100 | 964 | > 100 | 315 | 7.73
